Holding throughout (format): in vivo
Series [1] concerns Tygress tomato plants. Description: Marketable yield, open-field tomato (Examples 7-10). The settings on record: open field; for Marketable yield, Tomato: lb/acre/season: BIOX-Z 1.3, Cu 6.7, M 23.0, Fe 3.2, INC 4.0, INZ 0.6, CM 10.0, GZ 1.0, GF 4.0, EDZ 1.4, EDM 23.0. In a few lines:
(§1)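 Open-field 2008 trial, Balm FL; 'Tygress' tomato and 'Patriot' pepper transplants on drip-fed raised beds. Foliar micronutrient sprays at 3 and 5 WAT (BIOX-CM at 4 and 5), 60 gal/acre with surfactant. Youngest mature leaves sampled 6 WAT; RCBD, 5 replications, Fisher's LSD 5%.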

The subject of series [2] is Florida-47 tomato. The conditions noted are these: for Tomato toxicity: 1 week after treatment, scale 0 = no visible injury, 10 = plant death. Put shortly:
(§2)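 Florida-47 tomato and Aristotle bell pepper transplants in 2-gal pots with low-nutrient medium (pH 5.36), drip-irrigated; products at three rates in deionized water plus non-ionic surfactant sprayed on newly matured leaves at 3 and 7 WAT. Toxicity scored at 4 WAT (0=no damage, 10=death); foliar tissue analysed at 6 WAT; marketable fruit harvested 4 times (tomato).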

Series [3] has as its system Aristotle bell pepper. The settings on record: 1 week after treatment, scale 0 = no visible injury, 10 = plant death. Put shortly: as §2
The test system of series [4] is Patriot bell pepper plants. Description: Marketable yield, open-field bell pepper (Examples 7-10). The conditions noted are these: open field; lb/acre/season: BIOX-Z 1.3, Cu 6.7, M 23.0, Fe 3.2, INC 4.0, INZ 0.6, CM 10.0, GZ 1.0, GF 4.0, EDZ 1.4, EDM 23.0. In a few lines: as §1

Entries after “also recorded” stand apart in the source; their conditions may differ. Like-named read-outs stand apart in the source and are kept apart here.

`CSCCC(O)C(=O)[O-].CSCCC(O)C(=O)[O-].[Cu+2]` (centres unmarked) [BIOX-Cu, Cu-HMTBA]: the “Tomato marketable yield compared to control, statement” value in series [1] was “significantly increased tomato marketable yields relative to control; also recorded: significantly higher marketable yield of tomato fruits compared to control”. In addition, the “Marketable yield, Tomato” value in series [1] came to 19.2 a ton/acre. Besides, the Tomato toxicity in series [2] (High rate), in series [2] (Low rate) and in series [2] (Medium rate) was 0 in each case. Besides, the “Foliar injury (in words)” value in series [2] (copper concentration of 0.004% to 0.061% by weight, tomato and bell pepper stated together) is reported as “no foliar injury”. The Pepper toxicity in series [3] (High rate), in series [3] (Low rate) and in series [3] (Medium rate) was 0 in each case. Further, the “Marketable yield, Bell Pepper” value in series [4] came to 7.8 ton/acre.

Consider `CSCCC(O)C(=O)[O-].CSCCC(O)C(=O)[O-].[Mn+2]` (centres unmarked) [BIOX-M, Mn-HMTBA], for which the “Tomato marketable yield compared to control, statement” value in series [1] was “significantly higher marketable yield of tomato fruits; also recorded: higher marketable yield of tomato fruits compared to control”. Also, in series [1], the “Marketable yield, Tomato” value came to 18.1 a ton/acre. The Tomato toxicity in series [2] (High rate), in series [2] (Low rate) and in series [2] (Medium rate) was 0 each time. Also, the “Toxic effect on the plant (in words)” value in series [2] (manganese concentration of 0.015% to 0.124% by weight, both crops) is given as “no toxic effect”. Moreover, the Pepper toxicity in series [3] (High rate), in series [3] (Low rate) and in series [3] (Medium rate) was 0 each time. The “Marketable yield, Bell Pepper” value in series [4] worked out at 6.3 ton/acre.

For the compound `CSCCC(O)C(=O)[O-].CSCCC(O)C(=O)[O-].[Zn+2]` (centres unmarked) [BIOX-Z, Zn-HMTBA], in series [1], the “Tomato marketable yield compared to control, statement” value is given as “significantly higher than the control tomato harvest; also recorded: higher marketable yield compared to control”. Besides, the “Marketable yield, Tomato” value in series [1] worked out at 17.5 ton/acre. Also, the Tomato toxicity in series [2] (High rate), in series [2] (Low rate) and in series [2] (Medium rate) was 0 in each case. The Pepper toxicity in series [3] (High rate), in series [3] (Low rate) and in series [3] (Medium rate) was 0 in each case. Also, the “Marketable yield, Bell Pepper” value in series [4] is reported as 8.4 ton/acre.

As for EDTA chelated zinc [BIOX-EDZ], in series [1], the “Tomato marketable yield compared to control, statement” value is on record as “significantly higher than the control tomato harvest”. Besides, the “Marketable yield, Tomato” value in series [1] is recorded as 16.2 ton/acre. Besides, the Tomato toxicity in series [2] (High rate), in series [2] (Low rate) and in series [2] (Medium rate) was 0 each time. Further, the Pepper toxicity in series [3] (High rate), in series [3] (Low rate) and in series [3] (Medium rate) was 0 in each case. Also, the “Marketable yield, Bell Pepper” value in series [4] is 8.1 ton/acre.

On to Fe-HMTBA [BIOX-Fe], for which, in series [1], the “Tomato marketable yield compared to control, statement” value is “significantly higher tomato marketable yield compared to control” and the “Marketable yield, Tomato” value was determined as 17.8 a ton/acre. Further, the “Marketable yield, Bell Pepper” value in series [4] was 7.2 ton/acre.

Values taken from patent publication US20110098177A1, “METHODS AND COMPOSITIONS OF PLANT MICRONUTRIENTS” (NOVUS INTERNATIONAL INC., priority 2006, published 2011).
